The test system of experiment [1] is SARS-CoV-2 SA variant B.1351. In kind it is cell-based, Severe acute respiratory syndrome coronavirus. The following applies: MOI 0.1, 1 and 10, 50, 75 and 100µM, 24 hours.
A further experiment has as its system SARS-CoV-2 (FI). The format is cell-based, Severe acute respiratory syndrome coronavirus. As to conditions: ATR-002 100 µM.

Where two headings read alike, the source gives them in different places.

Consider `O=C(O)c1ccc(F)c(F)c1Nc1ccc(I)cc1Cl` [ATR-002, 2-(2-chloro-4-iodophenylamino)-N-3,4-difluoro benzoic acid], for which the virus yield entry in experiment [1] (Calu-3 cells) and in experiment [1] (Vero cells) was “reduction of virus yield” each time. The “production of progeny viral particles” value is recorded as “reduced the production of progeny viral particles” in the experiment with SARS-CoV-2 (FI) (A549-ACE2/TMPRSS2 cells, MOI of 0.001); “did not affect the production of progeny viral particles” in the experiment on SARS-CoV-2 (FI) (A549-ACE2/TMPRSS2 cells, MOI: 0.01); “reduced the production of progeny viral particles” in the experiment with SARS-CoV-2 (FI) (Calu-3 cells, MOI of 0.001).

Source of the values: patent EP4186500A1, “MEK INHIBITORS FOR THE PREVENTION AND TREATMENT OF LONG COVID SYNDROME” (Atriva Therapeutics GmbH, priority 2021, dated 2023).
